Patent publication US8075900B2, “Melanoma associated peptide analogues and vaccines against melanoma” (The United States of America, as represented by the …, priority 1996, dated 2011)
Values joined by “and” are separate entries in the source; they are usually repeats but may differ in a detail not shown here. Equal entries are not always repeated. No end group written: not given here.

biological target: T1, HLA-A*0201 (Homo sapiens, UniProt P04439, D140Y/D185E/D98H/E176V/E277Q/G131W/G231S/I119V/I121R/I166T/I218V/L300P/L318F/N151K/N90K/P208A/P217A/Q86G/Q94H/R138H/R169H/T345S); assay: Peptide-induced HLA-A*0201 upregulation/stabilization on T2 cells; format: binding; details: 25 μM peptide
T1 construct: Peptide-induced HLA-A*0201 upregulation on T2 cells was performed as described previously; endogenous in cells; host or cells: T2 cells (processing-defective, HLA-A*0201+)

Sequence | HLA-A*0201 stabilization (Fluorescence Index)
AAGIGILTA [alanine-substituted Melan-A/MART-1 27-35 analogue] | 1.03
AIGIGILTV [Melan-A/MART-1 27-35 N-terminal anchor-replacement analogue] | 1.29

same assay, conditions: 50 μM peptide

Sequence | HLA-A*0201 stabilization (Fluorescence Index)
AAGIGILTA [alanine-substituted Melan-A/MART-1 27-35 analogue] | 1.00
AIGIGILTV [Melan-A/MART-1 27-35 N-terminal anchor-replacement analogue] | 1.58

test system: T2 target cells, Melan-A/MART-1 27-35-reactive TIL 1235 lymphocytes; assay: Chromium-release assay, target cell sensitization for lysis by TIL 1235; format: cell-based, human; details: E:T 20:1, T2 target cells preincubated 90 min with 1 μM peptide, 5 hours

Sequence | target cell lysis by TIL 1235 (% specific lysis)
AAGIGILAV [alanine-substituted Melan-A/MART-1 27-35 analogue] | 11%
AAGIGIATV [alanine-substituted Melan-A/MART-1 27-35 analogue] | 6%
AAGIGILTA [alanine-substituted Melan-A/MART-1 27-35 analogue] | 26%
GAGIGILTV [glycine-substituted Melan-A/MART-1 27-35 analogue] | 52%
AAGAGILTV [alanine-substituted Melan-A/MART-1 27-35 analogue] | 0%
AAGIGALTV [alanine-substituted Melan-A/MART-1 27-35 analogue] | 2%
ALGIGILTV [Melan-A/MART-1 27-35 N-terminal anchor-replacement analogue] | 16%
YLEPGPVTA [reference compound] | −3% and −1%
AAGIAILTV [alanine-substituted Melan-A/MART-1 27-35 analogue] | 4%
AMGIGILTV [Melan-A/MART-1 27-35 N-terminal anchor-replacement analogue] | 6%
AAAIGILTV [alanine-substituted Melan-A/MART-1 27-35 analogue] | 13%
AIGIGILTV [Melan-A/MART-1 27-35 N-terminal anchor-replacement analogue] | 27%
AGGIGILTV [glycine-substituted Melan-A/MART-1 27-35 analogue] | 6%
AVGIGILTV [Melan-A/MART-1 27-35 N-terminal anchor-replacement analogue] | 27%

test system: T2 target cells, gp100-reactive TIL 1200 lymphocytes; assay: Chromium-release assay, target cell sensitization for lysis by TIL 1200; format: cell-based, human; details: E:T 20:1, T2 target cells preincubated 90 min with 1 μM peptide, 5 hours
Procedure: Chromium release assays were performed as described previously (Bakker et al., 1994, J. Exp. Med. 179:1005). […] Various amounts of effector cells were then added to the target cells in triplicate wells of U bottomed microliter plates (Costar, Badhoevedorp, The Netherlands) in a final volume of […]. […] After 5 h of incubation, part of the supernatant was harvested and its radioactive content was measured. The mean percentage specific lysis of triplicate wells was calculated using the formula: % specific lysis=((experimental release−spontaneous release)÷(maximal release−spontaneous release))×100.

Sequence | target cell lysis by TIL 1200 (% specific lysis) [%]
KTWAQYWQV | 63
KTWGAYWQV | 9
KTWGQYAQV | −2
YLEPGPVTA [reference compound] | 3
KTAGQYWQV | 58
KTWGQYWQA | 76
KTWGQAWQV | 7
KAWGQYWQV | 64
ATWGQYWQV | 75
KMWGQYWQV | 57

biological target: T1, HLA-A*0201; assay: Competition based HLA-A*0201 peptide-binding assay on JY cells; details: competition with Fluorescein labeled reference peptide at 4° C., mild acid treated HLA-A*0201+ B-LCL; read-out: Affinity IC50

Sequence | IC50 [µM]
KTWGQYWAV | 0.5
KIWGQYWQV | 0.6
KLWGQYWQV | 0.4
KVWGQYWQV | 0.8
